The values below come from ChEMBL document CHEMBL1127187, “Semisynthetic modification of hygromycin A. 2. synthesis and antibacterial activity of aryl analogs” (1993).

≈ marks a conversion by molar mass, not a printed value. Bounds are passed on as bounds.

Type in all cases: functional
One assay deals with Pasteurella multocida. As to the kind of experiment: Antibacterial activity against Pasteurella multocida (an important animal respiratory pathogen).
Assay [1] has as its system Brachyspira hyodysenteriae. Description: Antibacterial activity against Serpulina (Treponema) hyodysenteriae (the causative organism of swine dysentery).
Assay [2] relates to Brachyspira hyodysenteriae. Description: Compound was tested for antibacterial activity against Serpulina (Treponema hyodysenteriae (the causative organism of swine dysentery).

A word on the MIC: it is the smallest concentration in the dilution series that meets the test's criterion for growth inhibition. As for `C=CCOc1ccc(/C=C(/C)C(=O)N[C@@H]2[C@H](O)[C@@H](O)[C@H]3OCO[C@H]3[C@@H]2O)cc1C`, the minimum inhibitory concentration (MIC) turned out to be 50 µg/mL (≈ 123 µM) in the assay on Pasteurella multocida and 6.25 µg/mL (≈ 15.4 µM) in assay [1].

Take `C=CCOc1ccc(/C=C(\C)C(=O)N[C@@H]2[C@H](O)[C@@H](O)[C@H]3OCO[C@H]3[C@@H]2O)c(Cl)c1`: the minimal inhibitory concentration (MIC) (in the assay on Pasteurella multocida; in assay [1]) was more than 200 µg/mL each time.

As to `C=CCOc1ccc(/C=C(/C)C(=O)N[C@@H]2[C@H](O)[C@@H](O)[C@H]3OCO[C@H]3[C@@H]2O)cc1N`, the minimum inhibitory concentration (MIC) (against Pasteurella multocida; in assay [1]) was 0.78 µg/mL (≈ 1.92 µM) throughout.

For the compound `C=CCOc1ccc(/C=C(\C)C(=O)N[C@@H]2[C@H](O)[C@@H](O)[C@H]3OCO[C@H]3[C@@H]2O)c(F)c1F`, the minimum inhibitory concentration (MIC) was more than 200 µg/mL in the assay with Pasteurella multocida and 25 µg/mL (≈ 58.5 µM) in assay [1].

On to `C=CCOc1ccc(/C=C(/C)C(=O)N[C@@H]2[C@H](O)[C@@H](O)[C@H]3OCO[C@H]3[C@@H]2O)cc1NC(C)=O`, for which the MIC (in the assay on Pasteurella multocida; in assay [1]) was more than 200 µg/mL in each case.

In the case of `C=CCOc1ccc(/C=C(/C)C(=O)N[C@@H]2[C@H](O)[C@@H](O)[C@H]3OCO[C@H]3[C@@H]2O)cc1C(=O)O`, the MIC (against Pasteurella multocida; in assay [1]) was more than 200 µg/mL throughout.

On to `C=CCOc1ccc(/C=C(/C)C(=O)N[C@@H]2[C@H](O)[C@@H](O)[C@H]3OCO[C@H]3[C@@H]2O)cc1NC`, for which the minimal inhibitory concentration (MIC) (in the assay with Pasteurella multocida; in assay [1]) was more than 200 µg/mL throughout.

In the case of `C=CCOc1ccc(/C=C(/C)C(=O)N[C@@H]2[C@H](O)[C@@H](O)[C@H]3OCO[C@H]3[C@@H]2O)cc1NS(C)(=O)=O`, the minimum inhibitory concentration (MIC) (against Pasteurella multocida; in assay [1]) was more than 200 µg/mL each time.

Regarding `C=CCOc1c(F)cc(/C=C(/C)C(=O)N[C@@H]2[C@H](O)[C@@H](O)[C@H]3OCO[C@H]3[C@@H]2O)cc1F`, the figures for the minimal inhibitory concentration (MIC) (against Pasteurella multocida; in assay [1]) were more than 200 µg/mL and 25 µg/mL (≈ 58.5 µM), respectively.

Regarding `C=CCOc1ccc(/C=C(/C)C(=O)N[C@@H]2[C@H](O)[C@@H](O)[C@H]3OCO[C@H]3[C@@H]2O)cc1CO`, in the assay on Pasteurella multocida, the minimum inhibitory concentration (MIC) is 100 µg/mL (≈ 237 µM).

In the case of `C=CCOc1ccc(/C=C(/C)C(=O)N[C@@H]2[C@H](O)[C@@H](O)[C@H]3OCO[C@H]3[C@@H]2O)cc1I`, 100 µg/mL (≈ 193 µM) was the least that counted as inhibitory in assay [1] (MIC).

With `C=CCOc1cc(F)c(/C=C(/C)C(=O)N[C@@H]2[C@H](O)[C@@H](O)[C@H]3OCO[C@H]3[C@@H]2O)cc1F`, the MIC against Pasteurella multocida came out at 25 µg/mL (≈ 58.5 µM); in assay [1] it was 1.56 µg/mL (≈ 3.65 µM).

For the compound `C=CCOc1c(F)cc(/C=C(\C)C(=O)N[C@@H]2[C@H](O)[C@@H](O)[C@H]3OCO[C@H]3[C@@H]2O)c(F)c1O`, the minimum inhibitory concentration (MIC) in the assay on Pasteurella multocida is 100 µg/mL (≈ 226 µM); in assay [1], 50 µg/mL (≈ 113 µM).

Turning to `C=CCOc1ccc(/C=C(/C)C(=O)N[C@@H]2[C@H](O)[C@@H](O)[C@H]3OCO[C@H]3[C@@H]2O)cc1`, the MIC against Pasteurella multocida is 50 µg/mL (≈ 128 µM); in assay [1], 6.25 µg/mL (≈ 16 µM).

On to `C=CCOc1ccc(/C=C(/C)C(=O)N[C@@H]2[C@H](O)[C@@H](O)[C@H]3OCO[C@H]3[C@@H]2O)cc1O`, for which the MIC (in assay [2]; with Pasteurella multocida) was 0.78 µg/mL (≈ 1.91 µM) in each case.

Take `C=CCOc1ccc(/C=C(\C)C(=O)N[C@@H]2[C@H](O)[C@@H](O)[C@H]3OCO[C@H]3[C@@H]2O)c(OC)c1`: the minimal inhibitory concentration (MIC) (with Pasteurella multocida; in assay [1]) was more than 200 µg/mL in each case.

On to `C=CCOc1c(C)cc(/C=C(/C)C(=O)N[C@@H]2[C@H](O)[C@@H](O)[C@H]3OCO[C@H]3[C@@H]2O)cc1C`, for which the MIC (in the assay on Pasteurella multocida; in assay [1]) was more than 200 µg/mL in each case.

Turning to `C=CCOc1c(Br)cc(/C=C(/C)C(=O)N[C@@H]2[C@H](O)[C@@H](O)[C@H]3OCO[C@H]3[C@@H]2O)cc1Br`, the minimal inhibitory concentration (MIC) (against Pasteurella multocida; in assay [1]) was more than 200 µg/mL in each case.

`CC(=O)[C@H]1O[C@@H](Oc2ccc(C=C(C)C(=O)N[C@@H]3[C@H](O)[C@@H](O)[C@H]4OCO[C@H]4[C@@H]3O)cc2O)[C@@H](O)[C@@H]1O` [HYGROMYCIN A]: the minimum inhibitory concentration (MIC) (in the assay with Pasteurella multocida; in assay [1]) was 0.78 µg/mL (≈ 1.52 µM) throughout.

Take `C=CCOc1ccc(/C=C(\C)C(=O)N[C@@H]2[C@H](O)[C@@H](O)[C@H]3OCO[C@H]3[C@@H]2O)c(F)c1`: the MIC was determined as 25 µg/mL (≈ 61.1 µM) in the assay on Pasteurella multocida and 3.13 µg/mL (≈ 7.65 µM) in assay [1].

Turning to `C=CCOc1c(O)cc(/C=C(/C)C(=O)N[C@@H]2[C@H](O)[C@@H](O)[C@H]3OCO[C@H]3[C@@H]2O)cc1Br`, the minimum inhibitory concentration (MIC) (against Pasteurella multocida; in assay [1]) was more than 200 µg/mL throughout.

Regarding `C=CCOc1ccc(/C=C(\C)C(=O)N[C@@H]2[C@H](O)[C@@H](O)[C@H]3OCO[C@H]3[C@@H]2O)cc1CNCC`, the MIC against Pasteurella multocida was more than 200 µg/mL.

Consider `C=CCOc1ccc(/C=C(/C)C(=O)N[C@@H]2[C@H](O)[C@@H](O)[C@H]3OCO[C@H]3[C@@H]2O)cc1Cl`, for which the MIC in assay [1] worked out at 3.13 µg/mL (≈ 7.35 µM).

Take `C=CCOc1ccc(/C=C(/C)C(=O)N[C@@H]2[C@H](O)[C@@H](O)[C@H]3OCO[C@H]3[C@@H]2O)cc1F`: the results for the MIC (in the assay on Pasteurella multocida; in assay [1]) were 50 µg/mL (≈ 122 µM) and 1.56 µg/mL (≈ 3.81 µM), respectively.

With `C=CCOc1c(O)cc(/C=C(/C)C(=O)N[C@@H]2[C@H](O)[C@@H](O)[C@H]3OCOC3[C@@H]2O)cc1OC` (single isomer, unassigned), the minimum inhibitory concentration (MIC) (against Pasteurella multocida; in assay [1]) was more than 200 µg/mL in each case.

Consider `C=CCOc1ccc(/C=C(/C)C(=O)N[C@@H]2[C@H](O)[C@@H](O)[C@H]3OCO[C@H]3[C@@H]2O)cc1OC`, for which the minimum inhibitory concentration (MIC) (against Pasteurella multocida; in assay [1]) was more than 200 µg/mL in each case.

Consider `C=CCOc1c(O)cc(/C=C(/C)C(=O)N[C@@H]2[C@H](O)[C@@H](O)[C@H]3OCO[C@H]3[C@@H]2O)cc1C#N`, for which the minimal inhibitory concentration (MIC) (against Pasteurella multocida; in assay [1]) was more than 200 µg/mL each time.

Regarding `C=CCOc1ccc(/C=C(/C)C(=O)N[C@@H]2[C@H](O)[C@@H](O)[C@H]3OCO[C@H]3[C@@H]2O)cc1Br`, the minimum inhibitory concentration (MIC) against Pasteurella multocida is more than 200 µg/mL; in assay [1], 12.5 µg/mL (≈ 26.6 µM).
